Source: US20090209474A1, “NOVEL USES FOR DRUGS TARGETING GLUTAMINE SYNTHETASE” (NEWTHERA, priority 2005, published 2009)
Entries after “also recorded” stand apart in the source; their conditions may differ. Read-outs that look alike come from different tables or passages of the source.

What was measured:
[1] = tested on: Wistar rats; test: PTZ-induced seizures; assay type: in vivo
[2] = tested on: Wistar rats; test: Open field task in corticosterone-administered rats; assay type: in vivo; conditions: for resting time in the open field task: day 15, corticosterone 35 mg/kg s.c., versus PCB and Control
[3] = Adrenal weight of rats administered methylprednisolone; assay type: in vivo, Wistar rats
Method: Wistar rats were administered during 21 days once a day with methyprednisolone (5 mg/kg i.p.) plus GF (0.001, 0.01, 0.1 mg/kg), NF (1 and 10 mg/kg) or vehicle (PCB; i.p). Twenty-four hours after the last administrations, they were euthanatized. A complete necropsy was performed and main organs weighted.

[4] = target: T1, brain GS (Mus musculus, UniProt P15105); conditions: i.p. 7 days
[5] = Adrenal weight in corticosterone-administered rats; assay type: in vivo, Wistar rats; conditions: 21 days, versus PCB
[6] = in vivo, cited from earlier work
[7] = tested on: rabbits; conditions: rabbit, in vivo; cited from earlier work
[8] = tested on: GS; conditions: rat, in vivo
[9] = tested on: glucocorticoid receptor (GR); test: Brain glucocorticoid receptor expression by ELISA in corticosterone-administered rats; assay type: in vivo, Wistar rats; conditions: for brain GR expression: GF 0.1 and 3 mg/kg, MS 0.5, 15 and 45 mg/kg, tianeptine 0.5 mg/kg, versus PCB
[10] = tested on: rats; conditions: cited from earlier work
[11] = tested on: rats; conditions: rat, in vivo; cited from earlier work
[12] = target: T2, GS (Mus musculus, UniProt P15105); assay type: in vivo, BALB/c mice; design: from tissue; host or cells: mouse brain (whole brain, cortex, hippocampus, thalamus/hypothalamus); conditions: 24 h after single i.p.; NF 10 and 100 mg/kg, GF 1 mg/kg
Method: Cortex, hippocampi and thalamus/hypothalamus were carefully isolated immediately after euthanasia. Membranes were prepared and the activity of GS determined in these different structures (as mentioned above for the whole brain).

[13] = tested on: Wistar rats; test: Forced swimming test in corticosterone-administered rats; assay type: in vivo
[14] = target: T2, GS; conditions: 24 h after single i.p.
[15] = tested on: mice; conditions: cited from earlier work
[16] = target: T3, GS (Rattus norvegicus, UniProt P09606); conditions: GF 1 mg/kg, tianeptine 10 mg/kg, methyprednisolone 5 mg/kg i.p.
[17] = tested on: CA3 pyramidal neurons; test: Surface of CA3 pyramidal neurons (Golgi) in corticosterone-administered rats; assay type: in vivo, Wistar rats; conditions: 21 days
[18] = tested on: pathogenic mycobacteria; conditions: cited from earlier work
[19] = tested on: GS; conditions: literature (Meister 1985; Eisenberg et al., 2000); cited from earlier work
[20] = tested on: purified sheep brain GS; test: Purified sheep brain GS activity (Meister's method, gamma-glutamylhydroxamate formation); assay type: biochemical; conditions: for effect on GS subunit (monomer) activity: in presence of 2β-ME (DTT for tianeptine)
[21] = tested on: rats; conditions: rat, in vivo; cited from earlier work; remark: listed apart in the source
[22] = target: T3, GS; conditions: for lung GS activity: versus PCB
[23] = tested on: mice; conditions: cited from earlier work; remark: listed apart in the source
[24] = target: T3, GS; assay type: in vivo, Wistar rats; design: Wistar rat brain homogenates were incubated with naftazone; from tissue; host or cells: Wistar rat brain homogenate or membranes; in A19 also liver and lungs
[25] = tested on: dogs; conditions: based on decreased body weight at higher doses; cited from earlier work
[26] = target: bacterial GS (Mycobacterium tuberculosis, UniProt P9WN39); conditions: cited from earlier work
[27] = tested on: M. tuberculosis; conditions: MS with isoniazid (INH); cited from earlier work
[28] = tested on: rat lung GS protein; conditions: cited from earlier work
[29] = target: T1, brain GS; conditions: 24 h after single i.p.
[30] = tested on: purified sheep brain GS; conditions: Rueppel et al., 1972; cited from earlier work
[31] = GF 3 mg/kg, tianeptine 15 mg/kg
[32] = day 19, corticosterone 35 mg/kg s.c., versus PCB and Control
[33] = 21 days, versus PCB and Control

T3 sequence (P09606 2-373 limits assumed): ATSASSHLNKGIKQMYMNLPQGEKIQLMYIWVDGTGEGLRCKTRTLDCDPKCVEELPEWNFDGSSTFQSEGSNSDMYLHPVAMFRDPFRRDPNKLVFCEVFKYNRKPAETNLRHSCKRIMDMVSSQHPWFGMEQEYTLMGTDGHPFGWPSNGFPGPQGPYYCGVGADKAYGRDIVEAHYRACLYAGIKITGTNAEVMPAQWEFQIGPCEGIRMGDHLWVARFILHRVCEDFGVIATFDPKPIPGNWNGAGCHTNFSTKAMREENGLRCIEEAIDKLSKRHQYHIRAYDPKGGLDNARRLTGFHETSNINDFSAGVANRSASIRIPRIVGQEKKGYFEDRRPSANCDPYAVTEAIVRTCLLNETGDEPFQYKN
T1 sequence (P15105 2-373 limits assumed): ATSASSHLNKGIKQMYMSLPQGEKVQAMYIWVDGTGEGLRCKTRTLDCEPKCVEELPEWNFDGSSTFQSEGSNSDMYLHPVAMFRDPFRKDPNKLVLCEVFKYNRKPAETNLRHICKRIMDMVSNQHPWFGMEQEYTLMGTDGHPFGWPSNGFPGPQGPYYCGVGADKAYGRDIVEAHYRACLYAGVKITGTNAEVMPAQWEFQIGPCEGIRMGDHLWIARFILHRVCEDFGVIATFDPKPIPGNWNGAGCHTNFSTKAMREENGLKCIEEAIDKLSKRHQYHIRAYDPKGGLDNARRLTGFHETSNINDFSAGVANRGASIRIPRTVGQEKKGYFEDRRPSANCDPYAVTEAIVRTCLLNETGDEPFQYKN
T2 sequence (P15105 2-373 limits assumed): as above
bacterial GS, sequence (P9WN39 whole entry): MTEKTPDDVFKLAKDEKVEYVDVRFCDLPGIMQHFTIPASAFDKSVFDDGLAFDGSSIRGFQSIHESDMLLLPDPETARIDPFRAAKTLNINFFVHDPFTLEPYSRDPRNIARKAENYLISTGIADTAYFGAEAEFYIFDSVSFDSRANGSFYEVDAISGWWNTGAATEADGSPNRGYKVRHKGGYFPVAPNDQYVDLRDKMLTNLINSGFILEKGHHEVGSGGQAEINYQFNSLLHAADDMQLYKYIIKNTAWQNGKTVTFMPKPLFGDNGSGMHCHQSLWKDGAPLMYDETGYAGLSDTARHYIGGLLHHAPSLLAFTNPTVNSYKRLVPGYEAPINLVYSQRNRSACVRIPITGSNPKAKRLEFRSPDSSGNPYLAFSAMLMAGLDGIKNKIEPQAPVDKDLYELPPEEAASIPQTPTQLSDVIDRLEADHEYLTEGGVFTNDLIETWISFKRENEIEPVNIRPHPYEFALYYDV

Compound: CP(=O)(O)CCC(N)C(=O)O (racemic) [GF, ammonium 4-[hydroxy (methyl)phosphinoyl]-DL-homoalaninate]
- seizure occurrence after PTZ administration ([1]; GF 0.5, 5, 25 mg/kg, tianeptine 1, 10, 50 mg/kg i.p. 1 h before PTZ 50 mg/kg i.p.): decreased seizure occurrence
- dose relation of the effect on seizures ([1]; rat, in vivo): not dose-dependent
- resting time in the open field task [2]: higher
- methylprednisolone-induced adrenal atrophy ([3]; GF 0.001 mg/kg): fully prevented
- adrenal weight ([3]; GF 0.001, 0.01, 0.1 mg/kg, NF 1 and 10 mg/kg, methyprednisolone 5 mg/kg i.p., 21 days, versus PCB): higher
- dose relation of the effect on adrenal weight ([3]; rat, in vivo): non dose-dependent effect
- brain GS expression [4, 31]: increased also GS expression
- whole brain GS activity [4, 31]: increase GS activity
- dose relation of effects on GS activity and GS expression [4]: dose-dependent
- whole brain GS activity at higher doses ([4]; doses above GF 3 mg/kg, tianeptine 15 mg/kg): decreased GS activity
- adrenal weight [5]: higher
- part of an oral dose eliminated in the urine ([6]; po): 10-15%
- main metabolite found in urine and in faeces [6]: 3-[hydroxy(methyl)phosphinoyl] propionic acid
- NOAEL for maternal and embryo/fetal toxicity [7]: 6.3 mg/kg bw/day
- teratogenicity [7]: not teratogenic
- brain GS expression [8]: higher
- brain GR expression [9]: higher
- NOAEL ([10]; increased kidney weight at 140 ppm): 40 ppm
- NOAEL ([10]; rat, in vivo): 2.1 mg/kg bw/day
- carcinogenicity ([10]; rat, in vivo): not carcinogenic
- dose levels with effects on kidney weight [11]: ≥ 0.52 mg/kg bw/day
- GS activity in the thalamus/hypothalamus [12]: decreased
- immobility in the forced swimming test ([13]; GF 0.1 mg/kg, tianeptine 0.5 mg/kg): clear decrease in immobility
- immobility in the forced swimming test [13, 32]: comparable or lower
- GS activity in the hippocampus [14]: dose-dependently increased GS activity
- GS activity in the thalamus/hypothalamus [14]: decreased GS activity
- GS activity in the cortex ([14]; GF 0.1, 3, 15 mg/kg, tianeptine 0.5, 15, 45 mg/kg): no significant effect
- NOAEL ([15]; based upon increased plasma potassium at next highest dose): 80 ppm
- NOAEL ([15]; females): 19 mg/kg bw/day
- NOAEL ([15]; males): 17 mg/kg bw/day
- GS activity in the cortex [16]: Trend to an Decrease
- GS activity in the hippocampus [16]: Increase of GS Activity
- GS activity in the thalamus/hypothalamus ([16]; 1 h and 24 h after last administration): Decreased GS Activity
- effects of corticosterone on CA3 pyramidal neurons ([17]; GF 15 mg/kg): failed to blunt the effects of corticosterone
- effects of corticosterone on CA3 pyramidal neurons ([17]; GF 0.1 and 3 mg/kg): prevent in part the deleterious effects of corticosterone
- effect on mycobacterium growth [18]: only a very minor inhibitory effect
- nature of the binding to GS [19]: selective, irreversible GS ligand; also recorded: bind GS irreversibly
- type of competition [20]: competitive with L-glutamine
- effect on GS activity at “high” concentrations ([20]; in absence of 2βME): inhibit GS activity at “high” concentrations
- “low concentrations” that activate GS activity ([20]; in absence of 2βME): 10^−4 to 10^−11 M
- effect on GS subunit (monomer) activity [20]: inhibit GS activity at “high” concentrations
- NOAEL for maternal and embryo/fetal toxicity [21]: 2.2 mg/kg bw/day
- teratogenicity [21]: not teratogenic
- lung GS activity ([22]; 21 days, most rats): decrease in lung GS activity
- brain GS activity [22, 33]: dose-dependent decrease
- liver GS activity [22, 33]: clear decrease
- lung GS activity [22, 31]: remained in the same range
- NOAEL ([23]; increased mortality at higher dietary concentrations): 80 ppm
- NOAEL ([23]; mouse, in vivo): 11 mg/kg bw/day
- carcinogenicity ([23]; mouse, in vivo): not carcinogenic
- GS activity in the cortex, hippocampus and thalamus/hypothalamus ([24]; one hour after PTZ administration): increased GS activity
- dose relation of the effects on GS activity ([24]; rat, in vivo): not proportional to the dose
- NOAEL [25]: 4.5 mg/kg bw/day

Compound: CS(=N)(=O)CC[C@H](N)C(=O)O (stereo partly drawn) [MS, 2-amino-4-(S-methylsulfonimidosyl)butanoic acid]
- greater sensitivity to MS of bacterial GS than of mammalian GS [26]: 100 fold
- dose relation of the increase in resting time ([2]; day 15): proportional to the dose
- resting time in the open field task [2]: higher
- whole brain GS activity ([4]; MS 0.5, 15, 45 mg/kg): decreased GS activity proportionally the dose
- dose relation of effects on GS activity and GS expression [4]: dose-dependent
- adrenal weight [5]: higher
- reduction of CFU in guinea pig organs below the level attained with INH alone [27]: ~1.5 log units
- brain GS expression [8]: higher
- brain GR expression [9]: higher
- dose relation of the increase in GR expression ([9]; rat, in vivo): proportional to the dose
- augmentation of rat lung GS protein levels ([28]; MS 100 mg/kg): 4 fold
- augmentation of rat lung GS protein levels ([28]; combination MS 100 mg/kg and dexamethasone 0.5 mg/kg): 12 fold
- immobility in the forced swimming test [13, 32]: comparable or lower
- dose with the best protective effects on CA3 pyramidal neurons [17]: 15 mg/kg
- dose relation of effects on GS activity and GS expression [29]: dose-dependent
- dose with the highest GS activity [29]: 0.312 mg/kg
- whole brain GS activity ([29]; 0.078-20 mg/kg): increase GS activity
- effect on mycobacterium growth [18]: block the growth
- nature of the binding to GS [19]: non-selective, irreversible GS ligand; also recorded: bind GS irreversibly
- type of competition [20]: competitive with L-glutamine
- effect on GS subunit (monomer) activity [20]: inhibit GS activity at “high” concentrations
- lung GS activity ([22]; 21 days, most rats): decrease in lung GS activity
- brain GS activity [22, 33]: dose-dependent decrease
- liver GS activity [22, 33]: clear decrease
- brain GS activity ([22]; MS at the and 45 mg/kg doses): lowest GS activities

Compound: CC(C)NNC(=O)c1ccncc1 [iproniazid, Iproniazid]
- type of competition [30]: competes with hydroxylamine on the NH4 site
- tested on GS activity: ligand or not [20]: GS ligands
- effect on GS subunit (monomer) activity [20]: inhibit GS activity at “high” concentrations
